Source: patent US8822168B2, “Assays for detecting small nuclear ribonucleoprotein particle assembly and survival of motor neurons activity” (The Trustees of the University of Pennsylvania, priority 2005, dated 2014)
“Also recorded” adds a separate entry of the source.

Experiments:
SMN complex = assay: high-throughput 384-well SMN complex activity / snRNP assembly assay; type: biochemical; settings: test compound added to labeled RNA, cell extract and ATP; identified inhibitors, FIG. 10
Description: The present assay comprises labeling an RNA, in the case of an assay to measure Sm core activity, the RNA is snRNA. The RNA is preferably labeled with a non-radioactive tag, such as biotin-UTP. […] The labeled RNA binds the plate through the interaction between biotin and avidin/streptavidin. The RNA binding proteins present in the cell extract bind their RNA target at sequence specific sites, forming a ribonucleoprotein complex in the multi-well plate substrate. The ribonucleoprotein complex is captured on the plate and the plate is washed one or more times. An anti RNA binding protein antibody is then added to the plate. The plate is again washed one or more times and an labeled antibody, such as an HRP labeled antibody, is added to the multi-well plate substrate. The plate is washed one or more times, and HRP substrate is added. Chemiluminescence generated by HRP is detected using a plate reader.
Five microliters of test compound dissolved in DMSO were added to each well of the plate. Five microliters of HeLa whole cell extract containing 8 μg of total protein was added to each well. The plate was centrifuged (5 minutes at 1000 rpm), and the assembly reactions were allowed to proceed for 1 hour at room temperature. The reaction mixtures were aspirated and 20 μl/well of Y12 antibody (diluted 1:1000 in RSB-500 (10 mM Tris/HCl, pH 7.5, 500 mM NaCl, 2.5 mM MgCl2, and 0.1% Nonidet P-40 (NP-40)) containing 1 mg/ml BSA, 2 mg/ml heparin, and 1× Complete EDTA-free Protease Inhibitor Cocktail) was added. The plate was centrifuged for 5 minutes at 1000 rpm, and incubated for 1 hour at room temperature.
The plate was washed 10× with RSB-500 using an automated plate washer, followed by the addition of 20 ml/well of horseradish peroxidase-conjugated AffiniPure goat anti-mouse IgG+IgM (diluted 1:10,000 in RSB-500 containing 1 mg/ml BSA) for 1 hour at room temperature. The plate was centrifuged for 5 minutes at 1000 rpm. The plate was then washed 10× using an automated washer and 20 μl of SuperSignal ELISA Femto Maximum Sensitivity enhanced chemiluminescence substrate working solution was added into each well. The plate was then centrifuged for 5 minutes at 1000 rpm. The luminescence signal was measured using a plate Reader.
The assay of the present invention can also be used to determine the dose response activity of a compound on an RNA binding protein-RNA complex.

[1] = system: Sm core assembly on U4 snRNA in HeLa cytoplasmic extracts; assay: magnetic beads assay for in vitro assembly of snRNPs (Sm core assembly); type: biochemical; settings: cell extracts, AMP-PNP in place of ATP, FIG. 3A
Protocol: For quantitative in vitro assembly assays on magnetic beads, cytoplasmic extracts were prepared and used for assembly on biotin-labeled snRNAs using the standard reconstitution conditions in 96-well plates. Following the reactions, Y12 antibodies immobilized onto the magnetizable Dynabeads Protein A (Dynal Biotech ASA, Oslo, Norway) in 100 μl of RSB-500 buffer (10 mM Tris/HCl pH 7.5, 500 mM NaCl, 2.5 mM MgCl2) containing 2 mg/ml heparin, 0.1% NP-40, and 0.2 U/μl RNasin Plus RNase inhibitor (Promega, Madison, Wis.) were added to each well. Immunoprecipitations in the 96-well plates were carried out with gentle mixing at 750 rpm in a Thermomixer (Eppendorf, Germany) at 30° C. for 1 hour. The plates were subsequently transferred to a Kingfisher 96 magnetic particle processor (Thermo Labsystems, Vantaa, Finland) for automatic washing of the Dynabeads in each well with wash buffer (RSB-500, 0.1% NP-40) 5 times. […] The plates were transferred to a Wallac Victor2 multi-label plate reader (Perkin-Elmer, Wellesley, Mass.) for luminescence measurements at 495 nm. The resulting data were analyzed with Microsoft Excel.
To facilitate the study of the snRNP assembly process, an assay that allows a quantitative measurement of Sm core formation was developed (FIG. 2). […] This step also serves to amplify the signals for the luminescence measurement of the HRP activity on an automatic plate reader. […]

Compound | formation of an RNA binding protein-RNA complex (SMN complex) | Sm core assembly (snRNP complex formation) [1]
O=C1C(SCCO)=C(SCCO)C(=O)c2ccccc21 [2,3-bis[(2-Hydroxyehtyl)thio]-1,4-naphthoquinone] | inhibits the formation of an RNA binding protein-RNA complex | –
Nc1ncnc2c1ncn2[C@@H]1O[C@H](COP(=O)(O)OP(=O)(O)NP(=O)(O)O)[C@@H](O)[C@H]1O [AMP-PNP, adenosine 5′-(β,γ-imido)triphosphate] | – | does not permit the formation; also recorded: does not occur
CC1(C)CCC2=C(O1)c1ccccc1C(=O)C2=O [beta-lapachone] | inhibits the formation of an RNA binding protein-RNA complex | –
Oc1c(Cl)cc(Cl)cc1Sc1cc(Cl)cc(Cl)c1O [bithionol] | inhibits the formation of an RNA binding protein-RNA complex | –
Oc1c(Cl)cc(Cl)c(Cl)c1Cc1c(O)c(Cl)cc(Cl)c1Cl [hexachlorophene] | inhibits the formation of an RNA binding protein-RNA complex | –
